These results are taken from paper PMC9232612, “A phase 1b randomised controlled trial of a glucagon-like peptide-1 and glucagon receptor dual agonist IBI362 (LY3305677) in Chinese patients with type 2 diabetes” (Nature Communications, 2022).

Series [1] has as its system Chinese patients with T2D. The series is described as follows: Mixed-meal tolerance test (MTT) and fasting: total GLP-1. To be noted: week 12; patients receiving IBI362. It is filed as in vivo, human. The procedure:
(§1) HbA1c (2200101, Bio-Rad, USA), blood glucose (05168791190, Roche Diagnostics, Germany), insulin (12017547122, Roche Diagnostics, Germany), C peptide (03184897190, Roche Diagnostics, Germany), total GLP-1 (GLP-1 [7–36] amide and its metabolite, GLP-1 [9–36] amide, 10-1278-01, Mercodia AB, Sweden) and OXM (AL-139, AnshLabs, USA) tests were performed according to the manufactures’ instruction manuals in a central laboratory (KingMed Diagnostics, Guangzhou, China). HbA1c was measured using a Bio-rad D-100 Haemoglobin Testing System (Bio-rad). Blood glucose was measured using a Roche Cobas c702 analyser (Roche Diagnostics). Insulin and C peptide were measured using a Roche […] analyser (Roche Diagnostics). GLP-1 and OXM were measured using a Tecan Infinite M Plex microplate reader (TECAN).
(§2) Standard non-compartmental pharmacokinetics methods were used to analyze IBI362 plasma concentration data using Pkanalix 2020R1 (Lixoft, Antony, France). Secondary efficacy outcomes included change from baseline to week 12 in HbA1c, fasting plasma glucose (FPG), fasting insulin levels, change from baseline to week 12 in post-mixed-meal tolerance test (post-MTT) glucose, insulin, C peptide, GLP-1 and OXM levels, as well as seven-point self-measured blood glucose (SMBG) profile. […]
3. […]
(§3) bag is added and mixed well. The time is counted from the first bite of eating. […]

In series [2] the test system is Chinese patients with T2D. The series is described as follows: Mixed-meal tolerance test (MTT) and fasting: OXM. It is filed as in vivo, human. The conditions noted are these: week 12; patients receiving IBI362. How it is done:
as §1, §2, §3

The nature of series [3]: Physical and chemical characteristics of drug substance (solubility, PI). It counts as physicochemical. The source says: IBI362 Innovent Biologics (Suzhou) Co., Ltd. CIBI362A101
IBI362 or placebo, the patient, the investigator, and all personnel involved in the clinical evaluation will be blinded to the treatment from the randomization to database locked, […]
Different drug numbers corresponded to random numbers after randomization in the IWRS, and the unblinding information remained unknown to patients and investigators throughout the trial. The randomization table will be kept by a designated […]
The study drug and placebo will be packaged, labeled, administered at the same time, and will have the appearance, taste, and smell exactly the same to hide the real situation of the treatment drug.
If necessary for the safety of the subject, emergency unblinding must be performed […]
If a patient is randomized to receive active control, the patient will not be blinded.
Sponsor will not be blinded during this study.
5.2.1 Physical and Chemical Characteristics of Drug Substance
Molecular weight: 4560.32 Dalton
Description: White to off-white powder
Solubility: Vehicle: 20 mM Tris buffer pH 8.0 and
Solubility: Not less than 10 mg/mL at
Solubility Description: Sparingly or
5.2.2 Study Drug Strength and Manufacturer
IBI362 is formulated as IBI362 for injection in a strength of 2 mg per vial and […]
The strength of the formulation used in this study is 2 mg/vial; Manufacturer: […]

For series [4] the following is noted: single dose range of 0.03-5 mg; earlier study, ref not given; cited from earlier work. The source says:
page 21: safety follow-up visit. The safety data of this patient was collected and included in the analysis. We made this clear in the Results (Lines 210-213). 6. For the tables that present treatment emergent adverse events (Table 2 and Supplementary Table 2), do the numbers in the table correspond to the number of events, or the number of patients who experienced at least one event? Response: Safety data in this study were presented as number of patients (percentage). We made this clear in the footnotes (Fig. 2 and S3) of relevant tables and apologized for the neglect. 7. For Supplementary T ...

Another series concerns human GLP-1 receptors. The conditions noted are these: in vitro; cited from earlier work. The source says:
(§4) IBI362 (also known as LY3305677) is a once-weekly synthetic peptide analogue of mammalian OXM, with a fatty-acyl moiety to extend the half-life[13].

The subject of the next series is human glucagon receptors. The conditions noted are these: in vitro; cited from earlier work.
Source text: as §4

Another series deals with mice. To be noted: cited from earlier work.
Source text: as §4

For another series, the system named is mouse GLP-1 receptors. To be noted: in vitro; cited from earlier work.
Source text: as §4

A further series deals with mouse glucagon receptors. The conditions noted are these: in vitro; cited from earlier work.
Source text: as §4

Another series deals with diet-induced obese mice. The conditions noted are these: preclinical data quoted in the protocol, ref not given; cited from earlier work. The source says:
page 42: IBI362 Innovent Biologics (Suzhou) Co., Ltd. CIBI362A101 3%, abdominal obesity [waist circumference ≥ 90 cm (male) or ≥ 85 cm (female)] patients up to 45. 4% [15]. Although the occurrence of obesity is low compared with Caucasians, body fat tends t o accumulate in the abdominal cavity which is more likely to form abdominal obesity. Weight gain is an independent risk factor for the development of T2DM. Increased body weight or waist circumference can aggravate insulin resistance, increase the risk of T2DM, and the difficulty of glycemic control. Compared with patients with obesity ...

For `CC(C)C[C@H](NC(=O)[C@H](CC(C)C)NC(=O)[C@H](Cc1c[nH]c2ccccc12)NC(=O)[C@H](CCC(=O)O)NC(=O)[C@@H](NC(=O)[C@H](Cc1ccccc1)NC(=O)[C@H](CCC(=O)O)NC(=O)[C@H](CCCCNC(=O)COCCOCCNC(=O)COCCOCCNC(=O)CC[C@H](NC(=O)CCCCCCCCCCCCCCCCCCC(=O)O)C(=O)O)NC(=O)[C@H](C)NC(=O)[C@H](CCCCN)NC(=O)[C@H](CCCCN)NC(=O)[C@H](CCC(=O)O)NC(=O)[C@H](CC(=O)O)NC(=O)[C@H](CC(C)C)NC(=O)[C@H](Cc1ccc(O)cc1)NC(=O)[C@H](CCCCN)NC(=O)[C@H](CO)NC(=O)[C@H](Cc1ccc(O)cc1)NC(=O)[C@H](CC(=O)O)NC(=O)[C@H](CO)NC(=O)[C@@H](NC(=O)[C@H](Cc1ccccc1)NC(=O)[C@@H](NC(=O)CNC(=O)[C@H](CCC(N)=O)NC(=O)C(C)(C)NC(=O)[C@@H](N)Cc1c[nH]cn1)[C@@H](C)O)[C@@H](C)O)C(C)C)C(=O)N[C@@H](CCC(=O)O)C(=O)NCC(=O)NCC(=O)N1CCC[C@H]1C(=O)N[C@@H](CO)C(=O)N[C@@H](CO)C(=O)NCC(N)=O` [IBI362], the “post-MTT GLP-1 excursion” value in [1] is recorded as “markedly suppressed”. The “post-MTT OXM excursion” value in series [2] is recorded as “markedly suppressed”. Further, in [3] (drug substance), the PI is listed as 5.2. For the same molecule, in series [3] (vehicle 20 mM Tris buffer pH 8.0 and 150 mM sodium chloride, 25℃), the Solubility result was “Not less than 10 mg/mL”. In [4], the pharmacokinetic profile entry is on record as “linear”. The binding entry in the series with human GLP-1 receptors, with human glucagon receptors, in the series on mouse GLP-1 receptors and in the series on mouse glucagon receptors was “potently bound” each time. In the series with mice (both Gcgr KO and Glp1r KO settings), the body weight result was “decreased body weight”. The energy expenditure result in the series on mice (mice) is “increased energy expenditure”. In addition, the glucose control result in the series on mice (mice) was “improved glucose control”. The “weight loss effects (decreased appetite, weight loss)” value in the series with diet-induced obese mice is “significant weight loss effects”.
